Key:
[1] = biological target: Vascular endothelial growth factor receptor 2 (Homo sapiens, UniProt P35968); assay: Inhibition of VEGFR2
[2] = Inhibition of CDK1/Cyclin B by Flashplate assay; set-up: species or system Homo sapiens

Chain of Vascular endothelial growth factor receptor 2 (P35968 whole entry): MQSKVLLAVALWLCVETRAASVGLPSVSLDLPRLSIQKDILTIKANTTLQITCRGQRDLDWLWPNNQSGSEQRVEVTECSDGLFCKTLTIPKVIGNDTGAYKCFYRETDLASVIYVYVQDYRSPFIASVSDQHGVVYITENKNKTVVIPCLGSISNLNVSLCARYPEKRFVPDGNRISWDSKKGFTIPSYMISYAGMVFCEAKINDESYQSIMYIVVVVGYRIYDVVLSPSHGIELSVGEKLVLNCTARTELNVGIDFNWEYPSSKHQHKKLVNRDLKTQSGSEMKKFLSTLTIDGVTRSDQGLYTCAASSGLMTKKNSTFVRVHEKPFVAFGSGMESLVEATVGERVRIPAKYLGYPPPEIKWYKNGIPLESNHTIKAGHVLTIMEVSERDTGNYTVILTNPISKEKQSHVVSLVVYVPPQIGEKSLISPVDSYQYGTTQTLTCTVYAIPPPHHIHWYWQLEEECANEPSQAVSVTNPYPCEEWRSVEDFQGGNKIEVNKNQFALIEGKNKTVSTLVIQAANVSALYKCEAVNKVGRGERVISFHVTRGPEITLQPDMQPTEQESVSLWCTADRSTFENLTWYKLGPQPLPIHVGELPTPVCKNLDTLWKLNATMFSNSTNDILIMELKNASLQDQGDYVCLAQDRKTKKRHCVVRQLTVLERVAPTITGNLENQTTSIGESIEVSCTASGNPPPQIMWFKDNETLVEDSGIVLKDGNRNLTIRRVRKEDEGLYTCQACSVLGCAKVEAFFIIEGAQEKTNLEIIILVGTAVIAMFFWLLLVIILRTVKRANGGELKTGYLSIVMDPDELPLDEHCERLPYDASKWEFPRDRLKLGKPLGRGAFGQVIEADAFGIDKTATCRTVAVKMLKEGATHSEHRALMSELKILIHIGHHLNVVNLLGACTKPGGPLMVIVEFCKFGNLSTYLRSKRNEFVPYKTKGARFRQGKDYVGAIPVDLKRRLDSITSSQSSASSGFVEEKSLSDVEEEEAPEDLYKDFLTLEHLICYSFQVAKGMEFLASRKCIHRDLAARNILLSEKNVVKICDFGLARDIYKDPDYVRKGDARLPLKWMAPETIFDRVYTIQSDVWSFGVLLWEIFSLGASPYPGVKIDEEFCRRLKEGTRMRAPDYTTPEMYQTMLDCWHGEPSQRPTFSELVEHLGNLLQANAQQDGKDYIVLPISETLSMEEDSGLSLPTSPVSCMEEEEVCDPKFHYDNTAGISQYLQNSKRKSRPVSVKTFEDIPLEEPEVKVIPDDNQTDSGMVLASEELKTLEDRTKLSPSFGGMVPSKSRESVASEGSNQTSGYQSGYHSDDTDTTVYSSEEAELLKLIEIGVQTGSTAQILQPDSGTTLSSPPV

SMILES: c1ccc2c(-c3cnc4[nH]nc(-c5nc6ccccc6[nH]5)c4c3)cncc2c1
- IC50 [1]: 1460 nM
- IC50 [2]: 23 nM

From ChEMBL document CHEMBL1148847, “Synthesis of 3-(1H-benzimidazol-2-yl)-5-isoquinolin-4-ylpyrazolo[1,2-b]pyridine, a potent cyclin dependent kinase 1 (CDK1) inhibitor” (Bioorg Med Chem Lett, 2007)
